Laboratory results taken from patent publication US9119395B2, “Active substance mixtures comprising OPP and amines, microbicidal agents” (LANXESS Deutschland GmbH, priority 2005, dated 2015).

Columns and labels:
Pseudomonas fluorescens = experiment: Minimum inhibitory concentration and synergism (Kull synergistic index) of OPP/AMINE 1 combinations; assay type: cell-based; settings: compound applied on its own (QA/QB)
Description: The observed synergism of the mixtures according to the invention can be determined by the following mathematical approach (cf. F. C. Kull, P. C. Elisman, H. D. Sylwestrowicz and P. K. Mayer, Appl. Microbiol, 9, 538 (1961):
[formula] where • Qa=the amount of component A in the active compound mixture required to achieve the desired effect, i.e. no microbial growth, • QA=the amount of component A which, applied on its own, suppresses the growth of the microorganisms, • Qb=the amount of component B in the active compound mixture which suppresses the growth of the microorganisms, • Qb=the amount of component B which, applied on its own, suppresses the growth of the microorganisms.
A synergistic index of SI<1, in accordance with the above formula, indicates a synergistic effect for the active compound mixture.
The minimum inhibitory concentration of the active compound combinations listed in Table 1 were examined using the test germ Pseudomonas fluorescens

[1] = system: microorganism mixture: Pseudomonas aeruginosa, Pseudomonas fluorescens, Pseudomonas oleovorans, Pseudomonas rubescens, Pseudomonas stutzeri, Alcalaigenes …; experiment: Microbiological preservation stress test in a chalk suspension; assay type: cell-based; settings: 60° C. for 3 days before test, weekly contamination
Description: The preserving action of an active compound mixture according to the invention was examined in a chalk suspension using a preservation stress test.
The microbiological stress test examines the susceptibility of water-based systems to microbial attack and the action of preservatives. To this end, the preservatives are incorporated in defined concentrations into the water-based systems. To simulate praxis-like conditions, depending on the medium to be examined, a storage at elevated temperatures (for example 7 days at 40° C., 3 days at 60° C. or the like) may be carried out prior to the actual preservation test to evaluate the preservatives to be examined under conditions which are as realistic as possible. After the preparations have been carried out, contamination with microorganisms of a defined species is carried out at weekly intervals over a test period of at most 6 weeks. 2-3 and 7 days after each contamination, by counting the number of germs, it is established whether a complete kill or at least inhibition of propagation of the bacteria introduced has been achieved, compared to the unpreserved control samples.
The contamination source used for the examination in the stress test was the following microorganism mixture:
Very good activity is achieved when, even after 6 contamination cycles, the reserved samples effect a kill of the microorganisms introduced.
Using a chalk suspension (proportion of solids 70-75%), a preservation stress test according to the above scheme was carried out. After incorporation of the respective biocidally active compounds at the stated concentrations, the samples were exposed to thermal stress at 60° C. for 3 days. The samples pre-treated in this manner were then used for carrying out the microbiological stress test.

Oc1ccccc1-c1ccccc1 [OPP, o-phenylphenol]
Amount of pure active compounds required to suppress growth (Pseudomonas fluorescens): 500 (=QA) ppm
Week 1 ([1]; 150 ppm): ok
Week 2 ([1]; 150 ppm): spoilt
Week 3 ([1]; 150 ppm): spoilt
Week 4 ([1]; 150 ppm): spoilt
Week 5 ([1]; 150 ppm): spoilt
Week 6 ([1]; 150 ppm): spoilt
Week 1 ([1]; 200 ppm): ok
Week 2 ([1]; 200 ppm): ok
Week 3 ([1]; 200 ppm): ok
Week 4 ([1]; 200 ppm): ok
Week 5 ([1]; 200 ppm): spoilt
Week 6 ([1]; 200 ppm): spoilt

CCCCCCCCCCCCN(CCCN)CCCN [“AMINE 1”, bis(3-aminopropyl)dodecylamine]
Amount of pure active compounds required to suppress growth (Pseudomonas fluorescens): 50 (=QB) ppm
Week 1 ([1]; 80 ppm): ok
Week 2 ([1]; 80 ppm): spoilt
Week 3 ([1]; 80 ppm): spoilt
Week 4 ([1]; 80 ppm): spoilt
Week 5 ([1]; 80 ppm): spoilt
Week 6 ([1]; 80 ppm): spoilt
Week 1 ([1]; 160 ppm): ok
Week 2 ([1]; 160 ppm): ok
Week 3 ([1]; 160 ppm): ok
Week 4 ([1]; 160 ppm): spoilt
Week 5 ([1]; 160 ppm): spoilt
Week 6 ([1]; 160 ppm): spoilt
